Measured values as given in US9573911B2, “Diphosphate mimetics and uses thereof” (President and Fellows of Harvard College, priority 2011, dated 2017).

Legend:
MCF-10A ErbB2 cells = assay: Western blot of BZX-treated human breast cancer cells (O-GlcNAcylation); format: cell-based; details: 200 μM
Experimental: Western Blot of BZX-Treated Human Breast Cancer Cells MCF-10A ErbB2 cells were obtained from Joan Brugge's lab at Harvard Medical School (Boston, Mass.). Cells were maintained in DMEM/F12 (Invitrogen) supplemented with 5% horse serum (Invitrogen), 20 ng/ml EGF (Peprotech), 10 μg/ml insulin (Sigma), 100 ng/ml cholera toxin (Sigma), […] hydrocortisone (Sigma), 50 U/ml penicillin and 50 μg/ml streptomycin (Invitrogen). When cells were grown to 70% confluence, old growth medium was removed. Cells were rinsed twice with PBS, and were grown in glucose starvation medium (DMEM-no glucose; Invitrogen) supplemented with 1% horse serum, 50 U/ml penicillin and 50 μg/ml streptomycin) in the absence (control) and presence of (2) (200 μM) for 4 h. PUGNAc (100 μM, Sigma) and glucosamine (2 mM, EMD) were added to the cells and incubated for another 3 h. Cell lysates from 2−5×10^6 cells were prepared in M-PER mammalian protein extraction reagent (Pierce) supplemented with protease inhibitor cocktail (Sigma). Lysates were cleared by centrifugation at 16,000 g for 10 min at 4° C. and analyzed by SDS-PAGE. Proteins were transferred to a nitrocellulose membrane (Bio-Rad Laboratories) and O-GlcNAcylation was detected with anti-O-GlcNAc antibody (CTD 110.6, Sigma, used at 1:5,000) and a secondary anti-mouse IgM-HRP antibody (Pierce, used at 1:20,000). Western Blot of BZX Inhibitor Treated Cell Lysates

AURKA (Aurora A) = target: T1, AURKA (Aurora A) (Homo sapiens, UniProt O14965); assay: Kinase profiling, Invitrogen Z'-LYTE; format: biochemical; details: Table 2
T1 construct: purchased Invitrogen
T1 sequence (O14965 1-403): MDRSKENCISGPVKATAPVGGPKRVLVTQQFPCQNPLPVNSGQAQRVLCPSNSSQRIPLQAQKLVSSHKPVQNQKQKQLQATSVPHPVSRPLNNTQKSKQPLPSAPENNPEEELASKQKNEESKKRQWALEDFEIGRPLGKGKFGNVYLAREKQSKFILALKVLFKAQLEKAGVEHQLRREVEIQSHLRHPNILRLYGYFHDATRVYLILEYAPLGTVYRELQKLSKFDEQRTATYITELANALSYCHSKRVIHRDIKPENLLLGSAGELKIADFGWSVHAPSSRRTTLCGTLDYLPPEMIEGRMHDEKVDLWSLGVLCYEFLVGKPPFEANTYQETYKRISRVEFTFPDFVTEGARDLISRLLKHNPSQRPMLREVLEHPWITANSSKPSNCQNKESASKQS
Experimental: (§1) Kinase profiling was conducted using Invitrogen Z'-LYTE screening protocol and assay conditions found at www.invitrogen.com. Compound (2) inhibited PLK1 completely at 5 μM.

EPHA1 = target: T2, EPHA1 (Homo sapiens, UniProt P21709); assay: Kinase profiling, Invitrogen Z'-LYTE; format: biochemical; details: Table 2
T2 construct: purchased Invitrogen
T2 sequence (P21709 26-976): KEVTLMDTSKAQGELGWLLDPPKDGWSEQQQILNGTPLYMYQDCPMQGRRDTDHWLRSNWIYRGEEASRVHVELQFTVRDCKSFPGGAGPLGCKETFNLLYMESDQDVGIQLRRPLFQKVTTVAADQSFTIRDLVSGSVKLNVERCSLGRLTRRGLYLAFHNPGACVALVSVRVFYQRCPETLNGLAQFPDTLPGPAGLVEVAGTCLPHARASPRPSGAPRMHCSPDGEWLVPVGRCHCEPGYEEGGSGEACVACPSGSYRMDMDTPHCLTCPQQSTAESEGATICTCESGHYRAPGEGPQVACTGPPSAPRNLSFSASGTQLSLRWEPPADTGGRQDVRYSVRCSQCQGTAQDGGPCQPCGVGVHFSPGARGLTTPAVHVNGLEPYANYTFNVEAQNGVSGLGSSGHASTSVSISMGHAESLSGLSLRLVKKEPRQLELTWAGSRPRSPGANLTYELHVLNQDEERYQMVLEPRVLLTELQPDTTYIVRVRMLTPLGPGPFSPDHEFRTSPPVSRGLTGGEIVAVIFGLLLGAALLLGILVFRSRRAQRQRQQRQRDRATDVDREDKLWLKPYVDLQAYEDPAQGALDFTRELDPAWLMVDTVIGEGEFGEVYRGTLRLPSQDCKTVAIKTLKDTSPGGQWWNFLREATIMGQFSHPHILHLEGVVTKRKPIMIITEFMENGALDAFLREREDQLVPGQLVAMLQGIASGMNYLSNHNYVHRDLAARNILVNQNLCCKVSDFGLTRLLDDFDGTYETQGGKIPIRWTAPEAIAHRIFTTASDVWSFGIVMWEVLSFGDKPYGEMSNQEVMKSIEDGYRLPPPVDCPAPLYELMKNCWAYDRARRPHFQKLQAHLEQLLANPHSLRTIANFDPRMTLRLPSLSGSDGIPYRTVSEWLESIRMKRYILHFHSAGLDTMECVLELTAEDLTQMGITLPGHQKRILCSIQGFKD
Experimental: as §1

COc1ccc(OC(=O)n2c(=O)oc3cc(C(C)=O)ccc32)cc1 [Compound 2]
inhibition of O-GlcNAcylation in cells (MCF-10A ErbB2 cells): inhibits global O-GlcNAcylation in cells
% Inhibition Point 1 (AURKA (Aurora A)): −146%
% Inhibition Point 2 (AURKA (Aurora A)): −146%
% Inhibition mean (AURKA (Aurora A)): −146%
% Inhibition Point 1 (EPHA1): −62%
% Inhibition Point 2 (EPHA1): −107%
% Inhibition mean (EPHA1): −85%
